Source: patent EP2057188B1 (priority 2006, dated 2008)
Ends that are not written are not given here.

Columns and labels:
[1] = biological target: human GIP receptor; details: read-out: GIP RBA; GIP receptor binding; RIN where stated; unit nM printed for these values
[2] = type: in vivo, C57BL/6 mice
[3] = Body composition in DIO mice; type: in vivo, C57BL/6J mice; details: summary of properties
Excerpt: An exemplary assay can be one that involves utilization of a diet-induced obese (DIO) mouse model for metabolic disease. […] During the study, the mice can continue to eat their high-fat diet. Water can be provided ad libitum throughout the study.
DIO mice can be implanted with subcutaneous (SC) intrascapular osmotic pumps to deliver either vehicle (50% dimethylsulfoxide (DMSO) in water) or a compound of the invention. […] Body weights and food intake can be measured over regular intervals throughout the study periods. Respiratory quotient (RQ, defined as CO2 production ÷ O2 consumption) and metabolic rate can be determined using whole-animal indirect calorimetry (Oxymax, Columbus Instruments, Columbus, OH). The mice can be euthanized by isoflurane overdose, and an index of adiposity (bilateral epididymal fat pad weight) measured. Moreover, prior to determination of epididymal weight, body composition (lean mass, fat mass) for each mouse can be analyzed using a Dual Energy X-ray Absorptiometry (DEXA) instrument per manufacturer's instructions (Lunar Piximus, GE Imaging System).

[4] = type: in vivo, NIH/Swiss mice; details: summary of properties
Description: In Figure 3A, bars represent mean ± sd, n=6-10. […] Gavage (1.5g/kg) was given at t=0. Sample was taken at t=30 min. […] In Figure 3B, points represent mean ± sem, n=8-15.
(§1) In Figure 13B bars represent mean +/- sd. Peptide was injected IP at t = -5 minutes into 4-hour fasted NIH/Swiss female mice. Gavage (1.5g/kg) was given at t = 0. […] In Figure 17 points represent mean +/- sem. […] Samples were taken at t=60, t=120 and t=180.

[5] = type: in vivo, NIH/Swiss mice; details: mice; summary of properties
Description: Gavage (1.5g/kg) was given at t=0. Sample was taken at t=30 min.

[6] = type: in vivo, db/db mice; details: Figure 4; GIP at a 10 fold higher dose
Description: Peptide was injected IP at t=0 immediately following baseline sample into 2-hour fasted db/db mice.

[7] = type: in vivo, rats; details: 100 pmol/kg/min infusion dose in rats
Description: As described, fed, isoflurane anesthetized HSD male rats were intubated and cannulated via femoral artery and vein and allowed to stabilize for 1 hour. […] At t=0, an i.v. bolus of 5.7mmol/kg D-glucose was administered over 2 minutes. Samples for glucose measurement and insulin concentrations were taken at various time points before and after (0 to 90 minutes) glucose infusion.

[8] = biological target: cardiomyocyte Gs- and Gi-coupled receptors; test: cAMP assay in neonatal cardiomyocytes; type: cell-based, rat
Description: Activation of cardiomyocyte Gs- and Gi-coupled receptors was determined as a measure of cAMP production.
Neonatal cardiomyocytes were isolated using a commercially available system. […] Sprague Dawley neonatal rats (1-2 days old) were decapitated and the beating heart dissected out into digestion buffer (Cellutron D1 buffer) to dissociate cells. […] The resuspended cells incubated in buffer (Cellutron D3 buffer) for sufficient time to allow optimal dispersion and minimize the need for pipetting to break up clumps. Cells released from the first 2 digestions were discarded since a significant portion of these is red blood cells. Resuspended cells were filtered and allowed to pre-plate for 1 hour on plastic in an incubator in NS media (Cellutron, NJ) in order to remove fibroblasts. After 1 hour of pre-plating, floating cells are removed and the flask rinsed with NS media. The floating cells and the cells in the rinse media were combined and counted. Residual red blood cells, which are smaller that the cardiac myocytes, were not counted.
At Day 1, the NS media was replaced with fresh NS media.
Dose response was determined.
For Gs assays the positive control was 10uM forskolin and negative control was buffer. For Gi assays the positive control was buffer and the negative control was 10uM forskolin.

[9] = Circulatory system effects in conscious rats by telemetry; type: in vivo, Harlan Sprague Dawley rats
[10] = Gastric emptying (GIP hybrids, Figure 23A); type: in vivo; details: summary of properties
Description: as §1

[11] = Calcium lowering (GIP hybrids, Figure 23B); type: in vivo; details: summary of properties
Description: as §1

[12] = Glucose in rats (summary table); type: in vivo; details: summary of properties
[13] = at doses of 100µg; cited from earlier work
[14] = biological target: T1, human GIP receptor (Homo sapiens, UniProt P48546); test: biochemical; details: read-out: %Inh 10nM
[15] = biological target: T1, human GIP receptor
[16] = 80 nmol/kg, remote intravenous dosing

T1 sequence (P48546 22-466 limits assumed): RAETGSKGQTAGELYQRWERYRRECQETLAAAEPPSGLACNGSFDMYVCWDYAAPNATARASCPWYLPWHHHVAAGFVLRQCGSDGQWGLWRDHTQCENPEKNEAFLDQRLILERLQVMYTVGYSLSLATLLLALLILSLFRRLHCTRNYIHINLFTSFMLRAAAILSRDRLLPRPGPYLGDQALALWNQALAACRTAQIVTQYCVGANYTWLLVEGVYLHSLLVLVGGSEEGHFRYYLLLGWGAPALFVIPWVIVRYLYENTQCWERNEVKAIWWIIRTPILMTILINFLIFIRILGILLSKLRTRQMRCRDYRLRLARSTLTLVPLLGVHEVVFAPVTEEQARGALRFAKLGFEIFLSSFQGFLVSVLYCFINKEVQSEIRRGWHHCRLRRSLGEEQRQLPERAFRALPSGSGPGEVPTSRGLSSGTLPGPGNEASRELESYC

YSDGTFISDYSIAMDKlHQQDFVNWLLAQKPKKIRYS-NH2 [Compound 0601GIP4386]
IC50 [1]: 156 nM

YAEGTFISDYSIAMDKIHQQDFVNWLLAQKGKKNDWKHNITQ-OH [GIP]
BWt (mDIO) ([2]; DIO mice, summary of properties): not active
body weight change in diet-induced-obese mice ([2]; infused via osmotic pump for 2 weeks, high-fat diet): no effect on body weight change
Body Comp (mDIO) [3]: No effect on lean mass
OGTT [4]: decreases
Glucose mice [5]: weak
glucose lowering in a diabetic mouse model [6]: modest and wanes over time
insulin levels prior to the glucose challenge [7]: significant rise in insulin levels
insulinotropic response to an intravenous glucose challenge [7]: significant enhancement of the insulinotropic response
EC(50) ([8]; cAMP production, experiment of Figures 18A/18B): 9.1 nM
EC(50) ([8]; cardiomyocyte Gs-coupled receptor activation, three independent experiments): 15.6 nM
dP/dt (inotropic effect) [9, 16]: positive inotropic effect
heart rate [9, 16]: chronotropic (heart rate elevating) effect
mean arterial pressure [9, 16]: no effect
Heart Rate (rat) ([9]; rat, summary of properties): increases
MAP. (rat) ([9]; rat, summary of properties): not active
Gastric Emptying [10]: not active
iCa [11]: not active
Glucose rats [12]: not active
acute food intake (IP at t=0, consumed at t=30, 60, 120 min): did not acutely inhibit food intake
Food Intake (summary of properties): not active
inhibition of gastric emptying [13]: weakly active or inactive

CC[C@H](C)[C@H](NC(=O)[C@H](CO)NC(=O)[C@H](Cc1ccc(O)cc1)NC(=O)[C@H](CC(=O)O)NC(=O)[C@H](CO)NC(=O)[C@@H](NC(=O)[C@H](Cc1ccccc1)NC(=O)[C@@H](NC(=O)CNC(=O)[C@H](CC(=O)O)NC(=O)[C@H](C)NC(=O)[C@@H](N)Cc1ccc(O)cc1)[C@@H](C)O)[C@@H](C)CC)C(=O)N[C@@H](C)C(=O)N[C@@H](CCSC)C(=O)N[C@@H](CC(=O)O)C(=O)N[C@@H](CCCCN)C(=O)N[C@H](C(=O)N[C@@H](Cc1c[nH]cn1)C(=O)N[C@@H](CCC(N)=O)C(=O)N[C@@H](CCC(N)=O)C(=O)N[C@@H](CC(=O)O)C(=O)N[C@@H](Cc1ccccc1)C(=O)N[C@H](C(=O)N[C@@H](CC(N)=O)C(=O)N[C@@H](Cc1c[nH]c2ccccc12)C(=O)N[C@@H](CC(C)C)C(=O)N[C@@H](CC(C)C)C(=O)N[C@@H](C)C(=O)N[C@@H](CCC(N)=O)C(=O)N[C@@H](CCCCN)C(=O)N1CCC[C@H]1C(=O)N[C@@H](CCCCN)C(=O)N[C@@H](CCCCN)C(=O)N[C@H](C(=O)N[C@@H](CCCNC(=N)N)C(=O)N[C@@H](Cc1ccc(O)cc1)C(=O)N[C@@H](CO)C(N)=O)[C@@H](C)CC)C(C)C)[C@@H](C)CC [Compound 0601GIP4390]
inhibition at 0.01 µM [14]: 90.3%

HGEGTLISDYSIAMDKIHQQDFVNWLLAQKPKKIRYS-NH2 [0601 GIP48 43]
(%Inh 10nm,GIP-LF Assay) [15]: 3(%Inh 10nM)
